# Data from patent US20050112555A1, “Cytidine deaminase activators, deoxycytidine deaminase activators, Vif antagonists, and methods of screening for molecules thereof” (priority 2003, published 2005).
# Test system: intracellular CEM15
# Assay: Western blot of CEM15 abundance after co-expression of CEM15 and Vif in 293T cells
# Type: cell-based, human
# Details: within 36-48 h post-transfection
# From the text: CEM15 abundance can be quantified by western blotting as described above. Small molecules that bind to any of the aforementioned peptides can be evaluated for their ability to protect or restore CEM15 abundance using the aforementioned western blotting systems of whole cell extracts of cells that have been transfected with CEM15 and Vif wherein these proteins are co-expressed in 293T cells (conditions that result in CEM15 destruction) and evaluated (by western blotting of cell extracts) for the ability of VDA peptides of varying size and sequence to restore CEM15 abundance. Co-expression of CEM15 and Vif by transfection in 293T cells results ˜99% ablation of intracellular CEM15 within 36-48 h post-transfection. […] All peptides are tested according to this schedule. Expression of CEM15 and Vif are driven from the CMV promoter of pcDNA3 plasmids.
substance,measurement,value
"Vif: HIV-1 viral infectivity factor, SEQ ID NO: 7; induces degradation of CEM15",ablation of intracellular CEM15,~99%
